Experimental data as given in publication PMC6327986 (Journal of Enzyme Inhibition and Medicinal Chemistry, 2019).

Molecular target: hCA II (Homo sapiens, UniProt P00918)
Assay: stopped-flow CO2 hydrase assay, hCA II inhibition
Assay type: biochemical
Conditions: ratio of Ki values versus 3b

fold more potent against hCA II than ferrocenyl derivative 3b [fold]	fold potency decrease against hCA II when compared to 3b [fold]	Substance
8	–	[{(η^5-C5H4)–CH = N–N(H)C(O)–C6H4-4–SO2NH2}]Mn(CO)3 [2b]
–	4.5	[{(η^5-C5H4)–CH = N–N(H)C(O)–CH2CH2–NH–C6H4-4–SO2NH2}]FeCp [3c]
8	–	[{(η^5-C5H4)–CH=N–N(H)C(O)–C6H4-4–SO2NH2}]Re(CO)3 [1b]
